The target of data set [1] is T1, 5-hydroxytryptamine receptor 1A (Rattus norvegicus, UniProt P19327).
T1 sequence (P19327 whole entry): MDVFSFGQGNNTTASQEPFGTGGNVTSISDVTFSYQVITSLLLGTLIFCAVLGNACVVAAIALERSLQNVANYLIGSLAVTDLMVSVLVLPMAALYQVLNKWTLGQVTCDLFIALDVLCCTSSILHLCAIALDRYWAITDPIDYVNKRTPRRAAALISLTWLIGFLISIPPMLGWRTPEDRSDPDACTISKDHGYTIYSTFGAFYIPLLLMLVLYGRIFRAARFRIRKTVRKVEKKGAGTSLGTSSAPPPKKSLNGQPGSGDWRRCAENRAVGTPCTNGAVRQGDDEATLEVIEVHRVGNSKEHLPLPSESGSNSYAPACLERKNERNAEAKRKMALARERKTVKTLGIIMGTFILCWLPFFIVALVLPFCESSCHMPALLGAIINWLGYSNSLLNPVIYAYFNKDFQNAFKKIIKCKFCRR
The data set is described as follows: Displacement of [3H]8-OH-DPAT from rat brain hippocampus 5-HT1A receptor by radioligand binding assay.

In data set [2] the target is Sodium-dependent serotonin transporter (Rattus norvegicus, UniProt P31652). The data set is described as follows: Displacement of [3H]citalopram from rat brain cerebral cortex SERT by liquid scintillation counting analysis. The data set is classed as tissue-based.
A short description of data set [3]: Metabolic stability in human liver microsomes assessed as compound remaining at 10 uM after 60 mins by LC/MS analysis. The note with it: read-out: Stability. The data set is classed as ADME.
Data set [4] is described as follows: Half life in human liver microsomes at 10 uM by LC/MS analysis. It counts as ADME. For orientation: Liver microsomes are a subcellular fraction often used to study metabolism.

The structures appear in SMILES notation.

As usually defined, the Ki is a measure of affinity in units of concentration, obtained from inhibition or displacement. Higher therefore signals weaker binding. For orientation: half-life means how long it takes for the measured level to halve. A higher half-life goes with slow loss.

Chain of Sodium-dependent serotonin transporter (P31652 whole entry): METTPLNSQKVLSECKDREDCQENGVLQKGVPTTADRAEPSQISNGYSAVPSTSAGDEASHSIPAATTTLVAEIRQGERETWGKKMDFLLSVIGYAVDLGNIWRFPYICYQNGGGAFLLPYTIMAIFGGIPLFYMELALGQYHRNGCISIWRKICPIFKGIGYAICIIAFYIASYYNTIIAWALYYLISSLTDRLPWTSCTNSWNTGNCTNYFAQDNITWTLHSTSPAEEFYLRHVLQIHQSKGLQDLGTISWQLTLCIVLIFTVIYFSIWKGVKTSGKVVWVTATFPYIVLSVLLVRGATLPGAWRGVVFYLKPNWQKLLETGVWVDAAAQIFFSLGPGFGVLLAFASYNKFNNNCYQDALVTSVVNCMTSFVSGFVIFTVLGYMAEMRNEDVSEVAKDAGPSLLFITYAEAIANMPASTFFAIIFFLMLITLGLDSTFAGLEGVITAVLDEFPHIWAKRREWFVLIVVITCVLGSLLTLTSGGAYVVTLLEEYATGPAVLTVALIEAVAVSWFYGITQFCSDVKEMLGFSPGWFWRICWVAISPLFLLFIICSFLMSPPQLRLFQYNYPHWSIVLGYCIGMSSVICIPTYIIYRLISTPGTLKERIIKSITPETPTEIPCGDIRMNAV

With `O=c1c(-c2ccc(Cl)cc2)c2ccccn2c(=O)n1CCCCN1CCC(c2c[nH]c3ccc(F)cc23)CC1`, the Ki in data set [1] came out at 84.4 nM; in data set [2], 25.5 nM.

Turning to `Cc1ccc(-c2c(=O)n(CCCCN3CC=C(c4c[nH]c5ccc(Br)cc45)CC3)c(=O)n3ccccc23)cc1`, the Ki in data set [1] was determined as 145 nM; in data set [2], 949 nM.

In the case of `O=c1c(-c2ccc(F)cc2)c2ccccn2c(=O)n1CCCCN1CCC(c2c[nH]c3ccc(F)cc23)CC1`, the values for the Ki in data set [1] and in data set [2] were 12.8 nM and 19.4 nM, respectively.

With `O=c1c(-c2ccccc2)c2ccccn2c(=O)n1CCCCN1CC=C(c2c[nH]c3ccc(Br)cc23)CC1`, the results for the inhibition constant (Ki) in data set [1] and in data set [2] were 40.1 nM and 840 nM, respectively. Further, the remaining at 1 h, 10 µM in data set [3] is 63.2%. The same compound returned a half-life at 10 µM in data set [4] of 1.37 h.

In the case of `COc1ccccc1-c1c(=O)n(CCCCN2CC=C(c3c[nH]c4ccc(Cl)cc34)CC2)c(=O)n2ccccc12`, the Ki came to 97.8 nM in data set [1] and 718 nM in data set [2]. The remaining at 1 h, 10 µM in data set [3] turned out to be 55.6%. Besides, the half-life at 10 µM in data set [4] was determined as 1.13 h.

Turning to `O=c1c(-c2ccccc2Cl)c2ccccn2c(=O)n1CCCCN1CCC(c2c[nH]c3ccc(F)cc23)CC1`, the Ki in data set [1] was found to be 15.9 nM; in data set [2], 88.6 nM.

`O=c1c(-c2ccccc2F)c2ccccn2c(=O)n1CCCCN1CC=C(c2c[nH]c3ccc(Cl)cc23)CC1`: the Ki in data set [1] is 97.1 nM; in data set [2], 435 nM.

On to `COc1ccccc1-c1c(=O)n(CCCCN2CCC(c3c[nH]c4ccc(F)cc34)CC2)c(=O)n2ccccc12`, for which the Ki in data set [1] amounted to 5.6 nM; in data set [2] it was 20.7 nM.

Consider `Cc1ccc(-c2c(=O)n(CCCCN3CC=C(c4c[nH]c5ccc(Cl)cc45)CC3)c(=O)n3ccccc23)cc1`, for which the Ki is 267 nM in data set [1] and 408 nM in data set [2]. Besides, the remaining at 1 h, 10 µM in data set [3] worked out at 64.3%. In data set [4], this compound showed a half-life at 10 µM of 1.41 h.

For the compound `O=c1c(-c2ccccc2F)c2ccccn2c(=O)n1CCCCN1CCC(c2c[nH]c3ccc(F)cc23)CC1`, the Ki in data set [1] was determined as 9.2 nM; in data set [2], 25.7 nM.

Turning to `O=c1c(-c2ccc(Cl)cc2)c2ccccn2c(=O)n1CCCCN1CC=C(c2c[nH]c3ccc(Br)cc23)CC1`, the inhibition constant (Ki) in data set [1] was found to be 61.6 nM; in data set [2], 1000 nM.

As for `O=c1c(-c2ccccc2F)c2ccccn2c(=O)n1CCCCN1CC=C(c2c[nH]c3ccc(Br)cc23)CC1`, the Ki in data set [1] came to 32.5 nM; in data set [2], 836 nM.

With `O=c1c(-c2ccc(F)cc2)c2ccccn2c(=O)n1CCCCN1CC=C(c2c[nH]c3ccc(Cl)cc23)CC1`, the Ki in data set [1] was found to be 106 nM; in data set [2] it was 329 nM.

As for `O=c1c(-c2ccc(F)cc2)c2ccccn2c(=O)n1CCCCN1CC=C(c2c[nH]c3ccc(Br)cc23)CC1`, the figures for the Ki in data set [1] and in data set [2] were 79.1 nM and 404 nM, respectively. In data set [3], the remaining at 1 h, 10 µM was 51.4%. In addition, the half-life at 10 µM in data set [4] was determined as 1.03 h.

As to `COc1ccc(-c2c(=O)n(CCCCN3CC=C(c4c[nH]c5ccc(Br)cc45)CC3)c(=O)n3ccccc23)cc1`, the Ki in data set [1] stood at 23.1 nM; in data set [2], 326 nM.

Regarding `O=c1c(-c2ccccc2)c2ccccn2c(=O)n1CCCCN1CC=C(c2c[nH]c3ccc(Cl)cc23)CC1`, the Ki in data set [1] was determined as 126 nM; in data set [2], 322 nM.

As to `O=c1c(-c2ccccc2)c2ccccn2c(=O)n1CCCCN1CCC(c2c[nH]c3ccc(F)cc23)CC1`, the Ki was found to be 12.4 nM in data set [1] and 15.6 nM in data set [2].

With `O=c1c(-c2ccc(Cl)cc2)c2ccccn2c(=O)n1CCCCN1CC=C(c2c[nH]c3ccc(F)cc23)CC1`, the Ki in data set [1] worked out at 265 nM; in data set [2], 58.2 nM. Also, the remaining at 1 h, 10 µM in data set [3] stood at 50.2%. The same compound came in with a half-life at 10 µM in data set [4] of 1 h.

Consider `Cc1ccccc1-c1c(=O)n(CCCCN2CC=C(c3c[nH]c4ccc(Cl)cc34)CC2)c(=O)n2ccccc12`, for which the Ki came to 212 nM in data set [1] and 740 nM in data set [2].

Regarding `COc1ccc(-c2c(=O)n(CCCCN3CC=C(c4c[nH]c5ccc(F)cc45)CC3)c(=O)n3ccccc23)cc1`, the Ki stood at 81.7 nM in data set [1] and 15.6 nM in data set [2].

For the compound `Cc1ccc(-c2c(=O)n(CCCCN3CC=C(c4c[nH]c5ccc(F)cc45)CC3)c(=O)n3ccccc23)cc1`, the Ki in data set [1] was found to be 153 nM; in data set [2] it was 30.3 nM.

For `Cc1ccccc1-c1c(=O)n(CCCCN2CC=C(c3c[nH]c4ccc(F)cc34)CC2)c(=O)n2ccccc12`, the Ki in data set [1] amounted to 295 nM; in data set [2], 58.8 nM. The remaining at 1 h, 10 µM in data set [3] worked out at 60.5%. For the same compound, the half-life at 10 µM in data set [4] is 1.26 h.

Consider `Cc1ccccc1-c1c(=O)n(CCCCN2CC=C(c3c[nH]c4ccc(Br)cc34)CC2)c(=O)n2ccccc12`, for which the Ki is 71.5 nM in data set [1] and 879 nM in data set [2].

Take `Cc1ccc(-c2c(=O)n(CCCCN3CCC(c4c[nH]c5ccc(F)cc45)CC3)c(=O)n3ccccc23)cc1`: the results for the Ki in data set [1] and in data set [2] were 38.5 nM and 27.4 nM, respectively.

With `O=c1c(-c2ccc(F)cc2)c2ccccn2c(=O)n1CCCCN1CC=C(c2c[nH]c3ccc(F)cc23)CC1`, the Ki in data set [1] amounted to 220 nM; in data set [2], 11.3 nM.

Consider `O=c1c(-c2ccccc2Cl)c2ccccn2c(=O)n1CCCCN1CC=C(c2c[nH]c3ccc(Cl)cc23)CC1`, for which the Ki in data set [1] stood at 74.4 nM; in data set [2] it was 774 nM.

As to `COc1ccccc1-c1c(=O)n(CCCCN2CC=C(c3c[nH]c4ccc(F)cc34)CC2)c(=O)n2ccccc12`, the figures for the inhibitory constant (Ki) in data set [1] and in data set [2] were 251 nM and 20.8 nM, respectively. Besides, the remaining at 1 h, 10 µM in data set [3] came to 67.9%. In addition, the half-life at 10 µM in data set [4] was found to be 1.57 h.

On to `COc1ccc(-c2c(=O)n(CCCCN3CC=C(c4c[nH]c5ccc(Cl)cc45)CC3)c(=O)n3ccccc23)cc1`, for which the results for the Ki in data set [1] and in data set [2] were 278 nM and 312 nM, respectively.

Regarding `O=c1c(-c2ccccc2F)c2ccccn2c(=O)n1CCCCN1CC=C(c2c[nH]c3ccc(F)cc23)CC1`, the Ki in data set [1] was found to be 116 nM; in data set [2], 3.9 nM.

On to `COc1ccccc1-c1c(=O)n(CCCCN2CC=C(c3c[nH]c4ccc(Br)cc34)CC2)c(=O)n2ccccc12`, for which the Ki in data set [1] worked out at 33.1 nM; in data set [2], 1200 nM.

On to `O=c1c(-c2ccccc2)c2ccccn2c(=O)n1CCCCN1CC=C(c2c[nH]c3ccc(F)cc23)CC1`, for which the Ki in data set [1] came out at 118 nM; in data set [2] it was 27.1 nM. Besides, in data set [3], the remaining at 1 h, 10 µM turned out to be 63.4%. This compound had a half-life at 10 µM in data set [4] of 1.37 h.

In the case of `O=c1c(-c2ccccc2Cl)c2ccccn2c(=O)n1CCCCN1CC=C(c2c[nH]c3ccc(F)cc23)CC1`, the Ki in data set [1] was 127 nM; in data set [2], 5.2 nM.
